Laboratory results as given in ChEMBL document CHEMBL1137034, “Synthesis of 1H-pyridin-2-one derivatives as potent and selective farnesyltransferase inhibitors” (Bioorg Med Chem Lett, 2004).

How the values were obtained:
[1] = Inhibition of [3H]FPP incorporation into biotin-linked K-ras decapeptide (CVIM) by bovine farnesyltransferase; parameters: species or system Bos taurus
[2] = biological target: T1, Geranylgeranyl transferase type I (Bos taurus, UniProt P29702+Q5EAD5); test: inhibitory concentration needed to reduce the bovine GGTase-catalyzed incorporation of […] into a biotin-linked K-ras (B) decapeptide; format: protein-complex assay
[3] = biological target: Protein farnesyltransferase (Mus musculus, UniProt Q61239+Q8K2I1); test: Reduced farnesylation of H-ras transformed NIH3T3 cells; format: functional, cell-based
[4] = Inhibition of [3H]-FPP incorporation into biotin-linked K-ras decapeptide (CVIM) by bovine farnesyltransferase; parameters: species or system Bos taurus
[5] = biological target: T1, Geranylgeranyl transferase type I; test: Inhibition of [3H]FPP incorporation into biotin-linked K-ras decapeptide (CVLL) by bovine geranylgeranyltransferase; format: protein-complex assay
[6] = Plasma clearance was determined; format: ADME, organism-based, Canis lupus familiaris; conditions: dog, in vivo
[7] = Half life in dog; format: ADME, Canis lupus familiaris; conditions: in vivo
[8] = Oral bioavailability in dog; format: ADME, organism-based, Canis lupus familiaris; conditions: in vivo

Row | Compound | IC50 [1] [nM] | IC50 [2] [nM] | EC50 [3] [nM] | also measured
1 | Cn1cncc1C(OCc1c(-c2cccc(C(F)(F)F)c2)cc(C#N)n(C)c1=O)c1ccc(C#N)cc1 (configuration not stated) | 7.5 | 3600 |  | 
2 | Cn1cncc1C(OCc1cn(C)c(=O)cc1-c1cccc(Cl)c1)c1ccc(C#N)cc1 (configuration not stated) | 12 | > 10000 |  | 
3 | Cn1cncc1C(OCc1c[nH]c(=O)cc1-c1cccc(Cl)c1)c1ccc(C#N)cc1 (configuration not stated) |  | 6200 |  | 
4 | Cn1cncc1C(OCc1cn(Cc2cccnc2Br)c(=O)cc1-c1cccc(Cl)c1)c1ccc(C#N)cc1 (configuration not stated) | 3 | 6600 |  | 
5 | Cn1cncc1C(OCc1c(-c2cccc(Cl)c2)cc(C#N)n(C)c1=O)c1ccc(C#N)cc1 (configuration not stated) | 1.2 | > 10000 | 11.4 | 
6 | Cn1cncc1C(OCc1cn(Cc2ccc(C#N)cc2)c(=O)cc1-c1cccc(Cl)c1)c1ccc(C#N)cc1 (configuration not stated) |  |  |  | IC50 [4]: 5 nM; IC50 [5]: > 10000 nM
7 | Cn1cncc1C(OCc1cn(CC#N)c(=O)cc1-c1cccc(Cl)c1)c1ccc(C#N)cc1 (configuration not stated) | 19 | > 10000 |  | 
8 | Cn1cncc1C(OCc1c(-c2cc(Cl)cc(Cl)c2)cc(C#N)n(C)c1=O)c1ccc(C#N)cc1 (configuration not stated) | 1.1 | 9400 | 15 | 
9 | Cn1cncc1C(OCc1cn(Cc2ccccc2C#N)c(=O)cc1-c1cccc(Cl)c1)c1ccc(C#N)cc1 (configuration not stated) | 2.3 | 7700 |  | 

Second part, led by results:

Row | IC50 [1] [nM] | IC50 [2] [nM] | EC50 [3] [nM] | Compound | also measured
10 | 0.44 | 2.7 | 0.5 | Cn1cncc1C(OCc1c(-c2cccc(Cl)c2)cc(C#N)c(=O)n1C)c1ccc(C#N)cc1 (configuration not stated) | 
11 | 0.87 | 1.3 | 5.2 | Cn1cncc1C(OCc1ccc(C#N)cc1-c1cccc(Cl)c1)c1ccc(C#N)cc1 (configuration not stated) | 
12 | 2.1 | 2000 | 15 | Cn1cncc1C(OCc1cn(Cc2cccc(F)c2)c(=O)cc1-c1cccc(Cl)c1)c1ccc(C#N)cc1 (configuration not stated) | 
13 | 2.1 | 1200 | 10 | Cn1cncc1C(OCc1cn(Cc2cccc(Cl)c2)c(=O)cc1-c1cccc(Cl)c1)c1ccc(C#N)cc1 (configuration not stated) | 
14 | 1.3 | 1900 | 9 | Cn1cncc1C(OCc1cn(Cc2cccc(C#N)c2)c(=O)cc1-c1cccc(Cl)c1)c1ccc(C#N)cc1 (configuration not stated) | Plasma clearance [6]: 8.83 mL/min/kg; half-life [7]: 1.4 h; bioavailability [8]: 47%
